How the values were obtained:
Assay type in all cases: in vivo
[1] = system: Diabrotica balteata (Corn Root Worm); assay: Activity against Diabrotica balteata (corn root worm), sprayed maize sprouts on agar; conditions: 96 h, application rate 200 ppm, L2 larvae, 4 days after infestation, read-out: effect in at least one of the two categories (mortality or growth inhibition)
Method: Example B2: Activity Against Diabrotica balteata (Corn Root Worm)
Maize sprouts placed onto an agar layer in 24-well microtiter plates were treated with aqueous test solutions prepared from 10,000 ppm DMSO stock solutions by spraying. After drying, the plates were infested with L2 larvae (6 to 10 per well). The samples were assessed for mortality and growth inhibition in comparison to untreated samples 4 days after infestation.

[2] = system: Plutella xylostella (Diamond Back Moth); assay: Activity against Plutella xylostella (diamond back moth), treated artificial diet; conditions: 192 h, application rate 200 ppm, eggs, 8 days after infestation, read-out: effect in at least one of the two categories (mortality or growth inhibition)
Method: Example B5: Activity Against Plutella xylostella (Diamond Back Moth)
24-well microtiter plates with artificial diet were treated with aqueous test solutions prepared from 10,000 ppm DMSO stock solutions by pipetting. After drying, Plutella eggs were pipetted through a plastic stencil onto a gel blotting paper and the plate was closed with it. The samples were assessed for mortality and growth inhibition in comparison to untreated samples 8 days after infestation.

[3] = system: Spodoptera littoralis (Egyptian Cotton Leaf Worm); assay: Activity against Spodoptera littoralis (Egyptian cotton leaf worm), sprayed cotton leaf discs; conditions: foliar, 72 h, application rate 200 ppm, L1 larvae, 3 days after infestation
Method: Example B7: Activity Against Spodoptera littoralis (Egyptian Cotton Leaf Worm)
Cotton leaf discs were placed onto agar in 24-well microtiter plates and sprayed with aqueous test solutions prepared from 10,000 ppm DMSO stock solutions. After drying the leaf discs were infested with five L1 larvae. The samples were assessed for mortality, anti-feeding effect, and growth inhibition in comparison to untreated samples 3 days after infestation. Control of Spodoptera littoralis by a test sample is given when at least one of the categories mortality, anti-feedant effect, and growth inhibition is higher than the untreated sample.

[4] = system: Carpocapsa (Cydia) Pomonella (Codling Moth); assay: Activity against Carpocapsa (Cydia) pomonella (codling moth), sprayed diet cubes; conditions: 336 h, application rate 12.5 ppm, L1 larvae, 14 days after infestation, read-out: effect in at least one of the two categories (mortality or growth inhibition)
Method: Example B11: Activity Against Carpocapsa (Cydia) Pomonella (Codling Moth)
Diet cubes coated with paraffin were sprayed with diluted test solutions in an application chamber. After drying off the treated cubes (10 replicates) were infested with 1 L1 larvae. Samples were incubated at 26-27° C. and checked 14 days after infestation for mortality and growth inhibition. The following compounds gave an effect of at least 80% in at least one of the two categories (mortality or growth inhibition) at an application rate of 12.5 ppm: P1, P2, P3, P4, P5, P6, P10, P11, P12, P14, P15, P16, P17, P19, P20, P21, P22, P24, P27, P29, P30, P33, P34, P35.

[5] = system: Myzus persicae (Green Peach Aphid); assay: Activity against Myzus persicae (green peach aphid), feeding/contact activity; conditions: 144 h, application rate 200 ppm, mixed ages, 6 days after infestation
Method: Example B6: Activity Against Myzus persicae (Green Peach Aphid) Feeding/Contact Activity
(§1) Sunflower leaf discs were placed onto agar in a 24-well microtiter plate and sprayed with aqueous test solutions prepared from 10,000 ppm DMSO stock solutions. After drying, the leaf discs were infested with an aphid population of mixed ages. The samples were assessed for mortality 6 days after infestation.

[6] = system: Diabrotica balteata (Corn Root Worm); assay: Activity against Diabrotica balteata (corn root worm), corn seedlings on filter paper in cups; conditions: 120 h, application rate 3 ppm, L2 larva, 5 days after treatment, read-out: effect in at least one of the two categories (mortality or growth inhibition)
Method: Example B12: Activity Against Diabrotica Balteata (Corn Root Worm)
Three corn seedlings were placed on wetted filter paper in plastic cups, and 3 ml of diluted test solutions were pipetted onto them. The cups were infested with 10 L2 larva and checked for mortality and growth regulation 5 days after treatment.

[7] = system: Frankliniella occidentalis (Western Flower Thrips); assay: Activity against Frankliniella occidentalis (western flower thrips), sprayed sunflower leaf discs; conditions: foliar, 168 h, application rate 200 ppm, population of mixed ages, 7 days after infestation
Method: Example B4: Activity Against Frankliniella occidentalis (Western Flower Thrips)
as §1, with “on” for “onto”, “in” for “in a”, “plates” for “plate”, “drying” for “drying,”, “a Frankliniella” for “an aphid”, “7” for “6”

[8] = system: Euschistus heros (Neotropical Brown Stink Bug); assay: Activity against Euschistus heros (neotropical brown stink bug), sprayed soybean leaves; conditions: 120 h, application rate 200 ppm, N2 nymphs, 5 days after infestation, read-out: effect in at least one of the two categories (mortality or growth inhibition)
Method: Example B3: Activity Against Euschistus heros (Neotropical Brown Stink Bug)
Soybean leaves on agar in 24-well microtiter plates were sprayed with aqueous test solutions prepared from 10,000 ppm DMSO stock solutions. After drying the leaves were infested with N2 nymphs. The samples were assessed for mortality and growth inhibition in comparison to untreated samples 5 days after infestation.

[9] = system: Bemisia tabaci (Cotton White Fly); assay: Activity against Bemisia tabaci (cotton white fly), sprayed cotton leaf discs; conditions: foliar, 144 h, application rate 200 ppm, adult white flies, 6 days after incubation
Method: Example B1: Activity Against Bemisia tabaci (Cotton White Fly)
Cotton leaf discs were placed on agar in 24-well microtiter plates and sprayed with aqueous test solutions prepared from 10,000 ppm DMSO stock solutions. After drying the leaf discs were infested with adult white flies. The samples were checked for mortality 6 days after incubation.

[10] = system: Tetranychus urticae (Two-Spotted Spider Mite); assay: Activity against Tetranychus urticae (two-spotted spider mite), sprayed bean leaf discs; conditions: foliar, 192 h, application rate 200 ppm, mixed population (mobile stages), 8 days after infestation
Method: Example B9: Activity Against Tetranychus urticae (Two-Spotted Spider Mite)
Bean leaf discs on agar in 24-well microtiter plates were sprayed with aqueous test solutions prepared from 10,000 ppm DMSO stock solutions. After drying the leaf discs were infested with a mite population of mixed ages. The samples were assessed for mortality on mixed population (mobile stages) 8 days after infestation.

[11] = system: Chilo suppressalis (Striped Rice Stemborer); assay: Activity against Chilo suppressalis (striped rice stemborer), treated artificial diet; conditions: 144 h, application rate 200 ppm, L2 larvae, 6 days after infestation
Method: Example B10: Activity Against Chilo suppressalis (Striped Rice Stemborer)
24-well microtiter plates with artificial diet were treated with aqueous test solutions prepared from 10,000 ppm DMSO stock solutions by pipetting. After drying, the plates were infested with L2 larvae (6-8 per well). The samples were assessed for mortality, anti-feeding effect, and growth inhibition in comparison to untreated samples 6 days after infestation. Control of Chilo suppressalis by a test sample is given when at least one of the categories mortality, anti-feedant effect, and growth inhibition is higher than the untreated sample.

CCS(=O)(=O)c1c(N2Cc3ncc(C(F)(F)F)cc3C2=O)nc2cc(C3(C#N)CC3)ccn12 [Compound P3, 1-[3-ethylsulfonyl-2-[5-oxo-3-(trifluoromethyl)-7H-pyrrolo[3,4-b]pyridin-6-yl]imidazo [1,2-a]pyridin-7-yl] cyclopropane-carbonitrile]
≥ 80%: percent effect (mortality or growth inhibition) at 200 ppm [1] | percent effect (mortality or growth inhibition) at 200 ppm [2] | percent control (mortality, anti-feedant effect or growth inhibition) at 200 ppm [3] | percent effect (mortality or growth inhibition) at 12.5 ppm [4] | mortality at 200 ppm [5] | percent effect (mortality or growth inhibition) at 3 ppm [6] | mortality at 200 ppm [7] | percent effect (mortality or growth inhibition) at 200 ppm [8] | mortality at 200 ppm [9]

CCS(=O)(=O)c1c(N2Cc3ccc(OC(F)(F)F)cc3C2=O)nc2cc(C3(C#N)CC3)ccn12 [Compound P5, 1-[3-ethylsulfonyl-2-[1-oxo-6-(trifluoromethoxy)isoindolin-2-yl]imidazo[1,2-a]pyridin-7-yl] cyclopropane-carbonitrile]
≥ 80%: percent effect (mortality or growth inhibition) at 200 ppm [1] | percent effect (mortality or growth inhibition) at 200 ppm [2] | percent control (mortality, anti-feedant effect or growth inhibition) at 200 ppm [3] | percent effect (mortality or growth inhibition) at 12.5 ppm [4] | mortality at 200 ppm [5] | percent effect (mortality or growth inhibition) at 3 ppm [6] | mortality at 200 ppm [7] | percent effect (mortality or growth inhibition) at 200 ppm [8] | mortality at 200 ppm [9]

CCS(=O)(=O)c1c(N2Cc3ccc(OC(F)(F)F)cc3C2=O)nc2ccc(C3(C#N)CC3)cn12 [Compound P14, 1-[3-ethylsulfonyl-2-[1-oxo-6-(trifluoromethoxy)isoindolin-2-yl]imidazo[1,2-a]pyridin-6-yl] cyclopropane-carbonitrile]
≥ 80%: percent effect (mortality or growth inhibition) at 200 ppm [1] | percent effect (mortality or growth inhibition) at 200 ppm [2] | mortality at 200 ppm [10] | percent control (mortality, anti-feedant effect or growth inhibition) at 200 ppm [3] | percent effect (mortality or growth inhibition) at 12.5 ppm [4] | mortality at 200 ppm [5] | percent effect (mortality or growth inhibition) at 3 ppm [6] | mortality at 200 ppm [7] | percent effect (mortality or growth inhibition) at 200 ppm [8] | mortality at 200 ppm [9]

CCS(=O)(=O)c1c(N2Cc3ncc(C(F)(F)F)cc3C2=O)nc2ccc(C3(C#N)CC3)cn12 [Compound P15, 1-[3-ethylsulfonyl-2-[5-oxo-3-(trifluoromethyl)-7H-pyrrolo[3,4-b]pyridin-6-yl]imidazo [1,2-a]pyridin-6-yl] cyclopropane-carbonitrile]
≥ 80%: percent effect (mortality or growth inhibition) at 200 ppm [1] | percent effect (mortality or growth inhibition) at 200 ppm [2] | mortality at 200 ppm [10] | percent control (mortality, anti-feedant effect or growth inhibition) at 200 ppm [3] | percent effect (mortality or growth inhibition) at 12.5 ppm [4] | mortality at 200 ppm [5] | percent effect (mortality or growth inhibition) at 3 ppm [6] | mortality at 200 ppm [7] | percent effect (mortality or growth inhibition) at 200 ppm [8] | mortality at 200 ppm [9]

CCS(=O)(=O)c1c(N2Cc3ccc(C(F)(F)F)cc3C2=O)nc2ccc(C3(C#N)CC3)cn12 [Compound P16, 1-[3-ethylsulfonyl-2-[1-oxo-6-(trifluoromethyl)isoindolin-2-yl]imidazo[1,2-a]pyridin-6-yl] cyclopropane-carbonitrile]
≥ 80%: percent effect (mortality or growth inhibition) at 200 ppm [1] | percent effect (mortality or growth inhibition) at 200 ppm [2] | mortality at 200 ppm [10] | percent control (mortality, anti-feedant effect or growth inhibition) at 200 ppm [3] | percent effect (mortality or growth inhibition) at 12.5 ppm [4] | mortality at 200 ppm [5] | percent effect (mortality or growth inhibition) at 3 ppm [6] | percent effect (mortality or growth inhibition) at 200 ppm [8] | mortality at 200 ppm [9]

CCS(=O)(=O)c1c(N2Cc3ncc(C(F)(F)F)cc3C2=O)nc2ccc(C3CC3)cn12 [Compound P27, 6-(6-cyclopropyl-3-ethylsulfonyl-imidazo [1,2-a]pyridin-2-yl)-3-(trifluoromethyl)-7H-pyrrolo[3,4-b]pyridin-5-one]
≥ 80%: percent effect (mortality or growth inhibition) at 200 ppm [1] | percent effect (mortality or growth inhibition) at 200 ppm [2] | percent control (mortality, anti-feedant effect or growth inhibition) at 200 ppm [3] | percent control (mortality, anti-feedant effect or growth inhibition) at 200 ppm [11] | percent effect (mortality or growth inhibition) at 12.5 ppm [4] | mortality at 200 ppm [5] | percent effect (mortality or growth inhibition) at 3 ppm [6] | mortality at 200 ppm [7] | percent effect (mortality or growth inhibition) at 200 ppm [8]

CCS(=O)(=O)c1c(N2Cc3ccc(S(=O)(=O)C(F)(F)F)cc3C2=O)nc2cc(OCC(F)(F)F)ccn12 [Compound P33, 2-[3-ethylsulfonyl-7-(2,2,2-trifluoroethoxy)imidazo[1,2-a]pyridin-2-yl]-6-(trifluoromethylsulfonyl)isoindolin-1-one]
≥ 80%: percent effect (mortality or growth inhibition) at 200 ppm [1] | percent effect (mortality or growth inhibition) at 200 ppm [2] | percent control (mortality, anti-feedant effect or growth inhibition) at 200 ppm [3] | percent control (mortality, anti-feedant effect or growth inhibition) at 200 ppm [11] | percent effect (mortality or growth inhibition) at 12.5 ppm [4] | mortality at 200 ppm [5] | percent effect (mortality or growth inhibition) at 3 ppm [6] | mortality at 200 ppm [7] | percent effect (mortality or growth inhibition) at 200 ppm [8] | mortality at 200 ppm [9]

CCS(=O)(=O)c1c(N2Cc3ccc(S(=O)(=O)C(F)(F)F)cc3C2=O)nc2cc(C(F)(F)F)ccn12 [Compound P37, 2-[3-ethylsulfonyl-7-(trifluoromethyl)imidazo[1,2-a]pyridin-2-yl]-6-(trifluoromethyl-sulfonyl) isoindolin-1-one]
≥ 80%: percent effect (mortality or growth inhibition) at 200 ppm [1] | percent control (mortality, anti-feedant effect or growth inhibition) at 200 ppm [3] | percent control (mortality, anti-feedant effect or growth inhibition) at 200 ppm [11] | mortality at 200 ppm [5] | percent effect (mortality or growth inhibition) at 3 ppm [6] | mortality at 200 ppm [7] | percent effect (mortality or growth inhibition) at 200 ppm [8] | mortality at 200 ppm [9]

Reference: patent US12696901B2, “Pesticidally active heterocyclic derivatives with sulfur containing substituents” (SYNGENTA CROP PROTECTION AG, priority 2020, dated 2026)
